Data as given in patent publication US11618743B2, “Herbicidal compounds” (SYNGENTA PARTICIPATIONS AG, priority 2017, dated 2023).
Where two headings read alike, the source gives them in different places.

Experiments:
Format in all cases: in vivo
[1] = tested on: Amaranthus retroflexus (AMARE); assay: Post-emergence efficacy, Method B; settings: 360 h, evaluated after 15 days, read-out: Control of weed species after post-emergence application, AMARE (100=total damage to plant; 0=no damage to plant); for pest or weed control at 1000 g/ha: Application Rate 1000 g/Ha
Procedure: (§1) An “instant formulation”, known as the IF50, containing 50 g/L of the “technical” (i.e. unformulated) active ingredient was prepared by dissolving the active ingredient in a mixture of organic solvents and emulsifier, details of which are provided in the table. This IF50 was then mixed with a small, variable amount of acetone to aid dissolution, before addition of an aqueous solution of 1% v/v ammonium sulphate+1% v/v Empicol ESC70 (Sodium lauryl ether sulphate) adjuvant, as the aqueous diluent, to form an aqueous spray solution which contains a predetermined concentration of the active ingredient (which varies depending on the application rate of the active ingredient to the plants).
(§2) Composition of the mixture of organic solvents and emulsifier used as a base for the instant formulation.
(§3) This aqueous spray solution was then sprayed onto the plants, after about 12 days' cultivation. The plants were grown from seeds sown in standard soil, placed in a glasshouse under controlled conditions (at 24/18° C. or 20/16° C., day/night; 16 hours light; 65% humidity). After spray application the plants were then grown on in a glasshouse under the same conditions and watered twice daily. After 15 days the test was evaluated (100=total damage to plant; 0=no damage to plant).
(§4) Ipomoea hederacea (IPOHE), Euphorbia heterophylla (EPHHL), Chenopodium album (CHEAL), 20 Amaranthus retroflexus (AMARE), Lolium perenne (LOLPE), Digitaria sanguinalis (DIGSA), Eleusine indica (ELEIN), Echinochloa crus-galli (ECHCG), Setaria faberi (SETFA)

[2] = tested on: Chenopodium album (CHEAL); assay: Post-emergence efficacy, Method B; settings: 360 h, read-out: Control of weed species after post-emergence application, CHEAL (100=total damage to plant; 0=no damage to plant)
Procedure: as §1, §2, §3, §4

[3] = tested on: Digitaria sanguinalis (DIGSA); assay: Post-emergence efficacy, Method B; settings: 360 h, evaluated after 15 days, read-out: Control of weed species after post-emergence application, DIGSA (100=total damage to plant; 0=no damage to plant); for pest or weed control at 1000 g/ha: Application Rate 1000 g/Ha
Procedure: as §1, §2, §3, §4

[4] = tested on: Echinochloa crus-galli (ECHCG); assay: Post-emergence efficacy, Method B; settings: 360 h, read-out: Control of weed species after post-emergence application, ECHCG (100=total damage to plant; 0=no damage to plant)
Procedure: as §1, §2, §3, §4

Eleusine indica (ELEIN) [5] = assay: Post-emergence efficacy, Method B; settings: 360 h, read-out: Control of weed species after post-emergence application, ELEIN (100=total damage to plant; 0=no damage to plant)
Procedure: as §1, §2, §3, §4

[6] = tested on: Euphorbia heterophylla (EPHHL); assay: Post-emergence efficacy, Method B; settings: 360 h, evaluated after 15 days, read-out: Control of weed species after post-emergence application, EPHHL (100=total damage to plant; 0=no damage to plant); for pest or weed control at 1000 g/ha: Application Rate 1000 g/Ha
Procedure: as §1, §2, §3, §4

[7] = tested on: Ipomoea hederacea (IPOHE); assay: Post-emergence efficacy, Method B; settings: 360 h, read-out: Control of weed species after post-emergence application, IPOHE (100=total damage to plant; 0=no damage to plant)
Procedure: as §1, §2, §3, §4

Lolium perenne (LOLPE) [8] = assay: Post-emergence efficacy, Method B; settings: 360 h, read-out: Control of weed species after post-emergence application, LOLPE (100=total damage to plant; 0=no damage to plant)
Procedure: as §1, §2, §3, §4

Setaria faberi (SETFA) [9] = assay: Post-emergence efficacy, Method B; settings: 360 h, evaluated after 15 days, read-out: Control of weed species after post-emergence application, SETFA (100=total damage to plant; 0=no damage to plant); for pest or weed control at 1000 g/ha: Application Rate 1000 g/Ha
Procedure: as §1, §2, §3, §4

[10] = tested on: Amaranthus palmeri (AMAPA); assay: Post-emergence efficacy, Method A; settings: Application rate 500 g/Ha; evaluated after 13 days; 100=total damage to plant, 0=no damage
Outline: (§5)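 Glasshouse post-emergence test: 14-day plants sprayed, then maintained at 24/16 °C day/night, 14 h photoperiod, 65% humidity. Evaluation at day 13 uses a percentage damage scale (100 = plant fully damaged).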

[11] = tested on: Chenopodium album (CHEAL); assay: Post-emergence efficacy, Method A; settings: Application rate 500 g/Ha; evaluated after 13 days; 100=total damage to plant, 0=no damage
Outline: as §5

[12] = tested on: Digitaria sanguinalis (DIGSA); assay: Post-emergence efficacy, Method A; settings: Application rate 500 g/Ha; evaluated after 13 days; 100=total damage to plant, 0=no damage
Outline: as §5

[13] = tested on: Echinochloa crus-galli (ECHCG); assay: Post-emergence efficacy, Method A; settings: Application rate 500 g/Ha; evaluated after 13 days; 100=total damage to plant, 0=no damage
Outline: as §5

Eleusine indica (ELEIN) [14] = assay: Post-emergence efficacy, Method A; settings: Application rate 500 g/Ha; evaluated after 13 days; 100=total damage to plant, 0=no damage
Outline: as §5

[15] = tested on: Euphorbia heterophylla (EPHHL); assay: Post-emergence efficacy, Method A; settings: Application rate 500 g/Ha; evaluated after 13 days; 100=total damage to plant, 0=no damage
Outline: as §5

[16] = tested on: Ipomoea hederacea (IPOHE); assay: Post-emergence efficacy, Method A; settings: Application rate 500 g/Ha; evaluated after 13 days; 100=total damage to plant, 0=no damage
Outline: as §5

Lolium perenne (LOLPE) [17] = assay: Post-emergence efficacy, Method A; settings: Application rate 500 g/Ha; evaluated after 13 days; 100=total damage to plant, 0=no damage
Outline: as §5

Setaria faberi (SETFA) [18] = assay: Post-emergence efficacy, Method A; settings: Application rate 500 g/Ha; evaluated after 13 days; 100=total damage to plant, 0=no damage
Outline: as §5

[19] = Method B, Application Rate 500 g/Ha, evaluated after 15 days
[20] = Method B, Application Rate 1000 g/Ha, evaluated after 15 days

| SMILES | pest or weed control at 1000 g/ha [1] [%] | pest or weed control at 1000 g/ha [2] [%] | pest or weed control at 1000 g/ha [3] [%] | pest or weed control at 1000 g/ha [4] [%] | pest or weed control at 1000 g/ha (Eleusine indica (ELEIN) [5]) [%] | pest or weed control at 1000 g/ha [6] [%] | pest or weed control at 1000 g/ha [7] [%] | pest or weed control at 1000 g/ha (Lolium perenne (LOLPE) [8]) [%] | pest or weed control at 1000 g/ha (Setaria faberi (SETFA) [9]) [%] | Control of weed species after post-emergence application, AMAPA [10] | Control of weed species after post-emergence application, CHEAL [11] | Control of weed species after post-emergence application, DIGSA [12] | Control of weed species after post-emergence application, ECHCG [13] | Control of weed species after post-emergence application, ELEIN (Eleusine indica (ELEIN) [14]) | Control of weed species after post-emergence application, EPHHL [15] | Control of weed species after post-emergence application, IPOHE [16] | Control of weed species after post-emergence application, LOLPE (Lolium perenne (LOLPE) [17]) | Control of weed species after post-emergence application, SETFA (Setaria faberi (SETFA) [18]) | further results |
| --- | --- | --- | --- | --- | --- | --- | --- | --- | --- | --- | --- | --- | --- | --- | --- | --- | --- | --- | --- |
| O=S(=O)([O-])CC[n+]1ccc(-c2ccncn2)cn1 [Compound A4] | – | – | – | – | – | – | – | – | – | – | – | – | – | – | – | – | – | – | pest or weed control at 500 g/ha ([1]; Application Rate 500 g/Ha): 100%; pest or weed control at 500 g/ha [2, 19]: 80%; pest or weed control at 500 g/ha ([3]; Application Rate 500 g/Ha): 100%; pest or weed control at 500 g/ha [4, 19]: 70%; pest or weed control at 500 g/ha (Eleusine indica (ELEIN) [5]; [19]): 80%; pest or weed control at 500 g/ha ([6]; Application Rate 500 g/Ha): 100%; pest or weed control at 500 g/ha [7, 19]: 100%; pest or weed control at 500 g/ha (Lolium perenne (LOLPE) [8]; [19]): 90%; pest or weed control at 500 g/ha (Setaria faberi (SETFA) [9]; Application Rate 500 g/Ha): 40% |
| O=C(O)CC[n+]1ccc(-c2ccncn2)cn1 [Compound A28] | 100 | 90 | 100 | 100 | 100 | 100 | 100 | 70 | 40 | – | – | – | – | – | – | – | – | – | – |
| Nc1ccnc(-c2cc[n+](CCC(=O)O)nc2)n1 [Compound A41] | 100 | 90 | 100 | 100 | 50 | 100 | 20 | 60 | 100 | – | – | – | – | – | – | – | – | – | – |
| O=C(O)CC[n+]1ccc(-c2cccnn2)cn1 [Compound A138, 3-(4-pyridazin-3-ylpyridazin-1-ium-1-yl)propanoic acid chloride] | 100 | 100 | 100 | 100 | 100 | 100 | 40 | 100 | 100 | – | – | – | – | – | – | – | – | – | – |
| N[C@H](CC[n+]1ccc(-c2ncccn2)cn1)C(=O)O [Compound A207, [(1R)-1-carboxy-3-(4-pyrimidin-2-ylpyridazin-1-ium-1-yl)propyl]ammonium 2,2,2-trifluoroacetate] | 100 | 90 | 90 | 100 | 100 | 70 | 100 | 20 | 100 | – | – | – | – | – | – | – | – | – | – |
| O=S(=O)([O-])CC[n+]1ccc(-c2cccnn2)cn1 [Compound A213, 2-(4-pyridazin-1-ium-3-ylpyridazin-1-ium-1-yl)ethanesulfonate chloride] | 100 | 80 | 100 | 100 | 100 | 100 | 80 | 90 | 100 | – | – | – | – | – | – | – | – | – | – |
| N#C[N-]C(=O)CC[n+]1ccc(-c2ncccn2)cn1 [Compound A226] | 100 | – | 100 | – | – | – | – | – | 70 | – | – | – | – | – | – | – | – | – | pest or weed control at 1000 g/ha [2, 20]: 100%; pest or weed control at 1000 g/ha [4, 20]: 100%; pest or weed control at 1000 g/ha [7, 20]: 100%; pest or weed control at 1000 g/ha (Lolium perenne (LOLPE) [8]; [20]): 70% |
| O=P([O-])(O)C[n+]1ccc(-c2ccncn2)cn1 [Compound A236] | – | – | – | – | – | – | – | – | – | 90 | 20 | 80 | 50 | 10 | 30 | 40 | 0 | 30 | – |
| COP(=O)(C[n+]1ccc(-c2ccncn2)cn1)OC.O=S(=O)([O-])C(F)(F)F [Compound A237] | – | – | – | – | – | – | – | – | – | 60 | 10 | 50 | 10 | 70 | 0 | 50 | 10 | 20 | – |
| COP(=O)(C[n+]1ccc(-c2ncccn2)cn1)OC.O=S(=O)([O-])C(F)(F)F [Compound A238, 1-(dimethoxyphosphorylmethyl)-4-pyrimidin-2-yl-pyridazin-1-ium trifluoromethanesulfonate] | – | – | – | – | – | – | – | – | – | 50 | 20 | 50 | 40 | 30 | 50 | 40 | 10 | 50 | – |
